pIC50: −log10 of the molar value. Several values for one entry are separate records, joined by “and”; a condition that tells them apart may be missing. Equal values may be shown once. Read-outs that look alike come from different tables or passages of the source.
How the values were obtained:
[1] = tested on: P. berghei liver stages; experiment: P. berghei liver stage growth assay (luciferase) in Huh7 cells; assay type: cell-based, Plasmodium berghei
Method: (§1) Huh7 cells were seeded at a density of 10 000 cells per well, or 20 000 per collagen-coated coverslip. […] Uninfected wells served as a control for background luminescence. […] Data are presented as a percentage of the size or parasite number of the solvent control to normalize for differences between experiments. For cell images presented in the figure, images were collected under optimal exposure settings to ensure features were visible. Individual cells were cropped from larger images with Fiji ImageJ, and the brightness was adjusted while ensuring that no fluorescence was removed. No other manipulations were performed.
(§2) Growth inhibition data were normalised by subtracting background fluorescence, luminescence, absorbance, or percentage of cells from a no-growth or no-viability control (high drug concentration, no-parasite control, or time=0 measurement as specified), and expressed as a percentage of the growth or cell percentage in the negative control (culture media alone or solvent control) at the indicated timepoint (or to the highest measurement reached during the assay for FIG. 15B).

[2] = tested on: human embryonic kidney cells (HEK293); experiment: HEK293 cell viability assay (MTT); assay type: cell-based; details: 96 hours
Method: HEK293 cell viability assays began with 5000 cells per well. 10 μg/mL cycloheximide was used as a no-growth control. Metabolic capacity (indicating viability) was measured by incubation with 0.45 mg/mL methylthiazolyldiphenyl-tetrazolium bromide (MTT; Sigma M2128) for two hours followed by crystal solubilisation in SDS.

[3] = tested on: asexual P. falciparum; experiment: Plasmodium growth inhibition assay (SYBR Safe), asexual stages; assay type: cell-based, Plasmodium falciparum; details: for IC90: read-out: IC90
Method: Compounds or solvent controls (DMSO, ethanol, or ethyl acetate) were serially diluted 2-fold across flat-bottom 96-well plates. Complete culture media without compound was used as a negative control. Chloroquine (100-200 nM) {Sigma C6628} was used as a positive control to determine background fluorescence. The parasitaemia of a culture containing predominantly ring stage parasites was counted by Giemsa smear. The parasitaemia was adjusted to 1% by addition of fresh uRBCs, and added to the plate at a final haematocrit of 1%, with 200 μL per well. The plates were incubated at 37° C. under humid microaerophilic conditions. […] Fluorescence was read at 490 nm excitation/520 nm emission on a FLUOstar Optima fluorescence plate reader {BMG Labtech}.
Growth inhibition data were normalised by subtracting background fluorescence from a no-growth control (high drug concentration or time=0 measurement as specified), and expressed as a percentage of the growth in the negative control (media alone or solvent control) either at the indicated timepoint, or to the highest measurement reached during the assay.
P. falciparum asexual parasite assays begun with ring-stage parasites at 1% parasitaemia and 1% haematocrit. 200 nM chloroquine (Sigma C6628) was used as a no-growth control. […] 17]; 8 (2):e54974).
as §2

[4] = tested on: Toxoplasma gondii tachyzoites; experiment: Toxoplasma growth inhibition assay (tdTomato fluorescence); assay type: cell-based
Method: Fluorescent Toxoplasma gondii parasites were inoculated into an optical bottom 96-well plate containing confluent human foreskin fibroblast (HFF) host cells at a density of 2000 parasites/well, with a serial dilution of each compound, or media/DMSO alone. Plates were measured daily with a FluoStar Optima fluorescence plate reader at 540 nm excitation/590 nm emission for seven days, and the background fluorescence from the time 0 reading was subtracted from all other measurements.
Fluorescence was measured daily with a FluoStar Optima fluorescence plate reader for one week, and the background fluorescence from the time 0 reading was subtracted from all other measurements.
as §2

[5] = tested on: P. falciparum gametocytes (stage III-IV); experiment: Gametocyte viability assay (MitoTracker, flow cytometry); assay type: cell-based, Plasmodium falciparum
Text: Gametocyte assays begun eight days post-invasion (Stage III-IV).
as §2

[6] = tested on: human hepatoma cells (Huh7); experiment: Huh7 hepatoma viability assay (CellTiter-Blue); assay type: cell-based; details: 48 hours
Method: Huh7 hepatoma viability assays were conducted in the same manner as the P. berghei assays, with metabolic capacity (indicating viability) measured by incubation with CellTiter-Blue® (Promega) for 3 hours.

[7] = tested on: P. berghei liver stage schizonts; experiment: P. berghei liver stage parasite size and number (fluorescence microscopy) in Huh7 cells; assay type: cell-based, Plasmodium berghei; details: for Smaller parasite size (reduction): 48 hours post-infection, vs DMSO
Method: as §1

[8] = tested on: human foreskin fibroblasts (HFF); experiment: HFF growth inhibition assay (SYBR Safe); assay type: cell-based
Method: Cells were incubated with a serial dilution of each compound, or media/DMSO alone. The protein synthesis inhibitor cycloheximide (10 μg/mL) was used as a positive control to determine background fluorescence. Approximately 5000 cells were seeded in each well. […] Plates were transferred to a −18° C. freezer. […] Fluorescence was read at 490 nm excitation/520 nm emission on a FLUOstar Optima fluorescence plate reader.
HFF cell growth inhibition assays began with 5000 cells per well. 10 μg/mL cycloheximide was used as a no-growth control.

[9] = in vivo; cited from earlier work
[10] = tested on: P. falciparum CAM3.IIREV (susceptible); experiment: Ring stage survival assay, susceptible revertant strain; assay type: cell-based, Plasmodium falciparum; details: 700 nM for six hours, then 66 hours without drug
Text: (§3) The inventors tested these compounds in a ring stage survival assay, which allows the detection of resistant parasites against this […] drug and is the standard method for investigating resistance to artemisinin and its derivatives (Witkowski B, Menard D, Amaratunga C. Fairhurst R. Ring-stage Survival Assays (RSA) to evaluate the in-vitro and ex-vivo susceptibility of Plasmodium falciparum to artemisinins Procedure. Inst Pasteur du Cambodge—Natl Institutes Heal [Internet]. 2013 Sep. 11 [cited 2022 Jun. 19]; Procedure; available from: https://www.wwarn.org/sites/default/files/INV10-Standard-Operating-Procedure-Ring-Stage-Survival-Assays.pdf). This assay involves a short treatment window against newly-invaded ring stage parasites, followed by removal of drug pressure to mimic the clearance of the drug from plasma. We utilised two parasite strains: an isolate from Cambodia (CAM3.II) with a mutated Kelch-13 conferring resistance, and a genetically modified revertant of this strain (CAM3.IIREV) conferring drug susceptibility (Straimer J, Gnädig N F, Witkowski B, Amaratunga C, Duru V, Ramadani A P, et al. K13-propeller mutations confer artemisinin resistance in Plasmodium falciparum clinical isolates. Science (80-) [Internet]. 2015 Jan. 23 [cited 2022 Jun. 19]; 347(6220):428-31; available from: https://www.science.org/doi/10.1126/science.1260867).
(§4) Following tight synchronisation, CAM3.II and CAM3.IIREV ring stage parasites (0-3 hours post invasion) at 1% parasitaemia and 2% haematocrit were incubated with 700 nM of compounds or solvent-only controls for exactly six hours, before removing the drug, thoroughly washing in RPMI, and returning to culture conditions for a further 66 hours. Some cells were treated with 700 nM artesunate for 72 hours as a no-growth control. DNA replication (indicating growth) was measured at the specified time using SYBR Safe DNA Gel Stain. Microscope slide smears of each condition were stained with 10% v/v Giemsa and examined under a light microscope (1 000× magnification); with ‘viable’ (morphologically normal) and ‘non-viable’ (morphologically aberrant; vacuolated or pyknotic) parasites distinguished according to standard protocol (Witkowski B, Menard D, Amaratunga C, Fairhurst R. Ring-stage Survival Assays (RSA) to evaluate the in-vitro and ex-vivo susceptibility of Plasmodium falciparum to artemisinins Procedure. Inst Pasteur du Cambodge—Natl Institutes Heal [Internet]. 2013 Sep. 11 [cited 2022 Jun. 19]; Procedure. Available from: https://www.wwam.org/sites/default/files/INV10-Standard-Operating-Procedure-Ring-Stage-Survival-Assays.pdf). Images were captured using a Leica ICC50 camera, with a resolution of 76 nm per pixel.

[11] = tested on: P. falciparum CAM3.II (mutated Kelch-13, resistant); experiment: Ring stage survival assay, resistant strain; assay type: cell-based, Plasmodium falciparum; details: 700 nM for six hours, then 66 hours without drug
Text: as §3, §4

For `COc1cc(NC(C)CCCNC(=O)CCC(=O)O[C@H]2CC[C@H]3[C@@H]4CC=C5C[C@@H](O)CC[C@]5(C)[C@H]4CC[C@]23C)c2ncccc2c1` (stereo partly drawn) [C-17-prim, 3β-Hydroxyandrost-5-en-17β-yl succinate-primaquine amide], the “Fold reduction in IC50 compared to primaquine alone” value ([1]; 48 hours) was ~15 fold, the pIC50 ([1]; Plasmodium berghei, Huh-7, 48 hours of treatment from sporozoite inoculation, Huh7 cells, FIG. 16A) was 6.70 and the “Concentration at which gradual cytotoxicity emerges” value [2] was 10 µM. The “Fold lower IC50 than primaquine alone” value [3] was ~4 fold, the “Fold difference in IC90 vs primaquine” value ([3]; 24 hours) was ~8 fold and the “Hill slope of inhibitory curve” value ([3]; 24 hours) was −4.56. The “Hill slope of inhibitory curve” value ([3]; 72 hours) was −4.20, the pIC50 ([3]; Plasmodium falciparum, 24 hours, starting with ring-stage parasites, FIG. 14B, read-out: IC50) was 5.51 and the IC90 ([3]; Plasmodium falciparum, 24 hours) was 5 µM. The IC90 ([3]; Plasmodium falciparum, 72 hours exposure time) was 4 µM, the “Fold lower IC50 than primaquine” value ([4]; 72 hours) was ~3.5 fold and the pIC50 ([4]; Toxoplasma gondii, 72 h, read-out: IC5 against T. gondii) was 5.55. For the same compound, the “Fold reduction in IC50 compared to primaquine alone” value ([5]; 48 hours) was 9 fold, the pIC50 ([5]; Plasmodium falciparum, 48 h, read-out: IC50, gametocyte viability) was 5.16 and the “Cell viability over the range of concentrations” value [6] was > 50%. The “Concentration at which cytotoxic effect was detected” value ([6]; effect on cellular integrity / modest cytotoxicity) was 3 µM, the “Smaller parasite size (reduction)” value ([7]; 0.3 μM) was 48% and the “Smaller parasite size (reduction)” value ([7]; 3 μM) was 90%. For the same compound, the “Parasite number (per coverslip)” value ([7]; 0.3 or 3 μM, compared to the same concentration of primaquine or DMSO-only control) was “significantly lower”, the “Concentration with substantial effect on fibroblast growth” value ([8]; 72 hours) was 10 µM and the “Maximal inhibition of HFF growth at the range of concentrations tested” value ([8]; 72 hrs) was ≤ 30%.
In the case of `C[C@H]1[C@H](OC(=O)CCC(=O)O)O[C@@H]2O[C@@]3(C)CC[C@H]4[C@H](C)CC[C@@H]1[C@@]24OO3` [artesunate, reference compound], the Half-life in blood [9] is listed as 30 to 90 min, the “Morphology in Giemsa-stained smears” value [10] is listed as “only morphologically aberrant parasites were present” and the “Morphology in Giemsa-stained smears” value [11] is listed as “a combination of morphologically normal parasites and morphologically aberrant pyknotic or vacuolated forms”. For the same compound, the “Parasite survival (DNA replication)” value ([11]; FIG. 17B) was > 30% and ~30%.

Source: patent US20250099488A1, “ANTI-PARASITE COMPOUNDS” (AUSTRALIAN NATIONAL UNIVERSITY, priority 2022, published 2025)
